Test results reported in US8501424B2, “Cd4+ epitopes of bone morphogenetic proteins” (Danisco US Inc., priority 2003, dated 2013).

Key:
CD4+ T-cells = test: I-MUNE T-cell proliferation assay (dendritic cells + autologous CD4+ T-cells + 15-mer peptides, tritiated thymidine); assay type: cell-based, human; parameters: key to epitope designation: major: response rate within the tested donor pool is at least three standard deviations above the mean background response rate; moderate: response rate within the tested donor pool is at least two standard deviations above the mean or three times the background; minor: response rate within the tested donor pool is at least twice the background; conditions: 83 donors; for structure value: 15-mer peptide sets, 5 μg/ml, positive response SI >= 2.95, analysis method (QC/non-QC) not stated at place
From the text: Full length amino acid sequences of human BMP-7 (GenBank Accession No. P18075) and BMP-14 (GenBank Accession No. P43026) precursor proteins were used to create 15-mer peptide sets. These variant peptides were synthesized by Mimotopes, using the multi-pin synthesis technique known in the art (See e.g., Maeji et al., J. Immunol. Meth., 134:23-33 [1990]). The 15-mer peptides were created such that sequences with adjacent peptides shared 12 amino acids (i.e., each peptide was offset by three amino acids). Peptides were diluted with DMSO to provide a stock concentration of approximately 2 mg/ml. The final concentration of peptides used in each assay was 5 μg/ml.
Fresh human peripheral blood cells were collected from 83 community donors. These cells were tested to determine antigenic epitopes in BMP-7 and BMP-14, as described in Example 3, below.
Peripheral mononuclear blood cells (PBMCs) (stored at room temperature, no older than 24 hours) were prepared for use as follows. PBMCs were isolated from buffy coat material by centrifuging over an underlay of LYMPHOPREP™ at 1000×g for 30 minutes. The interface layer was collected and washed and counted using the CELL-DYN® 3700 System (Abbott). Then, suspensions containing 10^8 PBMCs resuspended in 30 ml of AIM-V (Invitrogen) were prepared and the cells were allowed to adhere to plastic T-75 culture flasks for two hours. The remainder of the cells were frozen at 5×10^7 cells/ml in 90% FCS (Gibco/BRL) and 10% DMSO (Sigma).
After the two hour PBMC incubation period, non-adherent cells were removed from the culture flasks. The adherent cells were cultured in the flasks with 800 units/ml recombinant human GM-CSF (Endogen) and 100 units/ml recombinant human IL4 (Endogen) at 37° C., 5% CO2. On day 5 of incubation, 50 units/ml recombinant human Il-1α (Endogen) and 0.2 units/ml recombinant human TNF-α were added to the cultures. Adherent and non-adherent dendritic cells were harvested, washed, and counted on day 7, following a one-hour treatment with […] mitomycin C (Sigma) and 10 mM EDTA.
Autologous CD4+ T-cells were prepared from frozen aliquots of PBMCs. After thawing and washing in DPBS, CD4+ T-cells were isolated using a commercially available CD4 negative selection kit (Dynal), according to the manufacturer's instructions. Cells were counted using the Abbott CELL-DYN® 3700 System. The purity obtained using these methods was generally found to be greater than 90%.
This Example describes the assay system used in the present invention. This test system is also referred to as the “I-MUNE®” assay system. In 96-well, round bottom plates, autologous dendritic cells and CD4+ T-cells were combined with test peptides. More specifically, in a volume of 100 μl/well, 2×10^4 dendritic cells in AIM V were combined with individual peptides (at a final peptide concentration of 5 μg/ml and a final DMSO concentration of 0.25%). After a one-hour incubation at 37° C., 5% CO2, 2×10^5 CD4+ T-cells were added to the culture for a total volume of 200 μl. Negative control wells contained dendritic cells, CD4+ T-cells and 0.25% DMSO. Positive control wells contained dendritic cells, CD4+ T-cells (at the same concentrations as the test wells) and 0.25% DMSO with 0.4 μg/ml tetanus toxoid (List). Individual peptides were tested in duplicate for each donor.
After 5 days of incubation at 37° C., 5% CO2, the cultures were pulsed with 0.25 μCi/well tritiated thymidine (Perkin Elmer). After a subsequent 24 hours of incubation, plates were harvested and assessed for incorporation of the tritiated thymidine (i.e., T-cell proliferation) using a Wallac MICROBETA® TriLux liquid scintillation counter (Perkin Elmer).
For each individual buffy coat sample, the average CPM values for all of the peptides were analyzed. The average CPM values for each peptide were divided by the average CPM value for the control (DMSO only) wells to determine the “stimulation index” (SI). […]

[1] = tested on: HLA Class II antigens at DRB1 and DQB1; test: HLA associations of proliferative responses to epitope peptides; assay type: cell-based, human; conditions: for relative risk (RR): 83 donors
Description: In addition to the above analyses, the HLA associations with BMP-7 and BMP-14 epitope peptides were determined. In these experiments, the proliferative response data to five epitope peptides (#3, #7, #8, #16 and #31) were tested in 83 donors for which the expression of HLA Class II antigens at DRB1 and DQB1 was also tested. For four of the peptides, the reaction was assessed by two methods (i.e., “QC” and “non-QC,” “[nQC”] as described above). The statistically significant associations found by both methods were as follows. For epitope #3 and DR11, the relative risk (RR) was 6.25; p<0.0005 [QC], RR=4.17 p<0.005 [nQC]. For epitope #3 and DQ2, the RR was 0.17 p<0.04 [QC], RR=0.13 p<0.01 [nQC]. For epitope #3 and DQ9, the RR was 6.67 p<0.003 [QC]; RR=4.85 p<0.013 [nQC]. For epitope #8 and DR11, the RR was 6.6 p<0.0003. For epitope #31 and DR7, the RR was 8.32 p<0.001 [QC]; RR=4.44 p<0.002 [nQC].
In addition the average stimulation index (SI) was higher among DR11+ than among DR11− donors for peptide #3 (QC) (5.8 fold, p<0.0004) and peptide #8 (2.3 fold p<0.007). Also the average SI was higher among DR7+ than among DR7− donors for peptide #31 (QC) (2.7 fold p<0.0007).

[2] = patients treated for spinal problems; cited from earlier work

PLRSHLEPTNHAVIQ (BMP-14 epitope) [Peptide 19]
epitope designation (CD4+ T-cells): minor
statistical significance of peptide response (Poisson, cut-off p<0.05) (CD4+ T-cells; QC method): did not reach the p<0.05 cut-off

RMANVAENSSSDQRQ (BMP-7 epitope) [Peptide 8]
relative risk (RR) ([1]; DR11, method not stated, p<0.0003): 6.6
average stimulation index (SI) higher among DR11+ than among DR11− donors ([1]; method not stated, p<0.007): 2.3 fold

RSQNRSKTPKNQEAL (BMP-7 epitope) [Peptide 3]
relative risk (RR) ([1]; DQ2, QC, p<0.04): 0.17
relative risk (RR) ([1]; DQ2, nQC, p<0.01): 0.13
relative risk (RR) ([1]; DQ9, QC, p<0.003): 6.67
relative risk (RR) ([1]; DQ9, nQC, p<0.013): 4.85
relative risk (RR) ([1]; DR11, QC, p<0.0005): 6.25
relative risk (RR) ([1]; DR11, nQC, p<0.005): 4.17
average stimulation index (SI) higher among DR11+ than among DR11− donors ([1]; QC, p<0.0004): 5.8 fold

SHLEPTNHAVIQTLM (BMP-14 epitope) [Peptide 20]
epitope designation (CD4+ T-cells): minor
statistical significance of peptide response (Poisson, cut-off p<0.05) (CD4+ T-cells; QC method): did not reach the p<0.05 cut-off

SNVILKKYRNMVVRA (BMP-7 epitope) [Peptide 41]
epitope designation (CD4+ T-cells): minor
statistical significance of peptide response (Poisson, cut-off p<0.05) (CD4+ T-cells; QC method): did not reach the p<0.05 cut-off

SPISILFIDSANNVV (BMP-14 epitope) [Peptide 31]
relative risk (RR) ([1]; DR7, QC, p<0.001): 8.32
relative risk (RR) ([1]; DR7, nQC, p<0.002): 4.44
average SI higher among DR7+ than among DR7− donors ([1]; QC, p<0.0007): 2.7 fold

B1: BMP-7: human BMP-7 (GenBank Accession No. P18075), tested as 15-mer peptide set (protein, UniProt P18075 293-431, looked up)
Bone morphogenetic protein 7: STGSKQRSQNRSKTPKNQEALRMANVAENSSSDQRQACKKHELYVSFRDLGWQDWIIAPEGYAAYYCEGECAFPLNSYMNATNHAIVQTLVHFINPETVPKPCCAPTQLNAISVLYFDDSSNVILKKYRNMVVRACGCH
modifications: tested as overlapping 15-mer peptides
treated patients who developed detectable anti-BMP antibodies [2]: 38%
structure value (CD4+ T-cells): 0.70
relative immunogenicity by structure values (CD4+ T-cells; QC method): more immunogenic than BMP-14
relative immunogenicity (CD4+ T-cells; non-QC method): more immunogenic than the BMP-14 protein

B2: BMP-14: human BMP-14 (GenBank Accession No. P43026), tested as 15-mer peptide set (protein, UniProt P43026 382-501, looked up)
Growth/differentiation factor …: APLATRQGKRPSKNLKARCSRKALHVNFKDMGWDDWIIAPLEYEAFHCEGLCEFPLRSHLEPTNHAVIQTLMNSMDPESTPPTCCVPTRLSPISILFIDSANNVVYKQYEDMVVESCGCR
modifications: tested as overlapping 15-mer peptides
structure value (CD4+ T-cells): 0.57
